# According to US4448970A, “Nargenicin derivatives” (The Upjohn Company, priority 1981, dated 1984):
# Like-named read-outs stand apart in the source and are kept apart here.
# Experiments:
# [1] = tested on: Mycobacterium avium; settings: cited from earlier work
# [2] = tested on: S. lutea; settings: cited from earlier work
# [3] = tested on: K. pneumoniae; settings: cited from earlier work
# [4] = tested on: B. fragilis; settings: cited from earlier work
# [5] = tested on: C. perfringens; settings: cited from earlier work
# [6] = tested on: Sarcina lutea; assay: Standard agar diffusion (12.5 cm disc) test, Sarcina lutea; assay type: cell-based; settings: for zone of inhibition at 1000 µg/mL: Micrococcus luteus
# Procedure: (§1) When tested on a standard agar diffusion (12.5 cm disc) test at a concentration of 1 mg/ml compound (45) gave the following zones of inhibition in mm:
# (§2) The antibacterial activity of compounds (46), (47), (48), (49) and (50) on a standard agar diffusion (12.5 cm disc) test at a concentration of 1 mg/ml is shown in the following table: […]
# [7] = tested on: Staphylococcus aureus; assay: Standard agar diffusion (12.5 cm disc) test, Staphylococcus aureus; assay type: cell-based; settings: for zone of inhibition at 1000 µg/mL: Staphylococcus aureus
# Procedure: as §1, §2
# [8] = tested on: S. aureus; assay: Standard dipped disc agar diffusion assay, S. aureus; assay type: cell-based; settings: Staphylococcus aureus; 1 mg/ml, 0.5 in. disc
# Source text: In vitro antibacterial testing data, as measured by standard dipped disc agar diffusion assays and Minimum Inhibitory Concentration (MIC) determinations are as follows: […]
# [9] = tested on: S. lutea; assay: Standard dipped disc agar diffusion assay, S. lutea; assay type: cell-based; settings: Micrococcus luteus
# Procedure: In vitro antibacterial testing data, as measured by standard dipped disc agar diffusion assays and Minimum Inhibitory Concentration (MIC) determinations are as follows:
# A 0.5 inch disc dipped into a methanol solution of chloride (6b) at a concentration of 1 mg/ml gave a zone of inhibition of 30 mm when spotted on an agar tray seeded with S. lutea.
# [10] = tested on: S. aureus; assay: S. aureus SQ-Mouse CD50; assay type: in vivo; settings: Staphylococcus aureus, sc
# [11] = read-out: Agar Diffusion zone, S. lutea
smiles,measurement,setting,value
"COC1CC2C=CC3C4OC2(C(C)=CC(C)C(C(C)O)OC1=O)C3C(O)C(C)C4O (single isomer, unassigned) [nodusmicin]",activity against Mycobacterium avium,[1],active
same,activity against S. lutea,[2],active
same,activity against K. pneumoniae,[3],active
same,activity against B. fragilis,[4],active
same,activity against C. perfringens,[5],active
"COC1CC2C=CC3C4OC2(C(C)=CC(C)C(C(C)=NO)OC1=O)C3C(O)C(C)C4OC(=O)c1ccc[nH]1 (single isomer, unassigned; isomer a) [Compound 46, 18-Deoxy-18-oximinonargenicin A1, Isomer A]",zone of inhibition at 1000 µg/mL,"[6]; read-out: Zone size, S. lutea",37 mm
same,zone of inhibition at 1000 µg/mL,"[7]; read-out: Zone size, S. aureus",30 mm
"CON=C(C)C1OC(=O)C(OC)CC2C=CC3C4OC2(C(C)=CC1C)C3C(O)C(C)C4OC(=O)c1ccc[nH]1 (single isomer, unassigned; isomer a) [Compound 49, 18-Deoxy-18-methoximinonargenicin A1, Isomer A]",zone of inhibition at 1000 µg/mL,"[6]; 1 mg/ml, 12.5 cm disc, table 6, read-out: Zone size, S. lutea",35 mm
same,zone of inhibition at 1000 µg/mL,"[7]; 1 mg/ml, 12.5 cm disc, table 6, read-out: Zone size, S. aureus",30 mm
"COC1CC2C=CC3C4OC2(C(C)=CC(C)C(C(C)=NO)OC1=O)C3C(O)C(C)C4OC(=O)c1ccc[nH]1 (single isomer, unassigned; isomer b) [Compound 47, 18-Deoxy-18-oximinonargenicin A1, Isomer B]","Zone size, S. lutea","[6]; 1 mg/ml, 12.5 cm disc, table 6",37 mm
same,"Zone size, S. aureus","[7]; 1 mg/ml, 12.5 cm disc, table 6",30 mm
"CON=C(C)C1OC(=O)C(OC)CC2C=CC3C4OC2(C(C)=CC1C)C3C(O)C(C)C4OC(=O)c1ccc[nH]1 (single isomer, unassigned; isomer b) [Compound 50, 18-Deoxy-18-methoximinonargenicin A1, Isomer B]","Zone size, S. lutea","[6]; 1 mg/ml, 12.5 cm disc, table 6",35 mm
same,"Zone size, S. aureus","[7]; 1 mg/ml, 12.5 cm disc, table 6",30 mm
"COC1CC2C=CC3C4OC2(C(C)=CC(C)C(C(C)Cl)OC1=O)C3C(O)C(C)C4OC(=O)c1ccc[nH]1 (stereo not shown) [Compound 24, 18-Chloro-18-deoxynargenicin A1]",zone of inhibition at 1000 µg/mL,[8],29 mm
same,zone of inhibition at 1000 µg/mL,[9]; [11],31 mm
same,ED50,[10],107 mg/kg
"COC1CC2C=CC3C4OC2(C(C)=CC(C)C(C(C)=O)OC1=O)C3C(O)C(C)C4OC(=O)c1ccc[nH]1 (stereo not shown) [Compound 25, 18-Deoxy-18-oxonargenicin A1]",zone of inhibition at 1000 µg/mL,[8],35 mm
same,zone of inhibition at 1000 µg/mL,[9]; [11],41 mm
same,ED50,[10],152 mg/kg
"COC1CC2C=CC3C4OC2(C(C)=CC(C)C(C(C)N=[N+]=[N-])OC1=O)C3C(O)C(C)C4OC(=O)c1ccc[nH]1 (stereo not shown) [Compound 29, 18-Azido-18-deoxynargenicin A1]",zone of inhibition at 1000 µg/mL,[8],26 mm
same,zone of inhibition at 1000 µg/mL,[9]; [11],33 mm
"CCC1OC(=O)C(OC)CC2C=CC3C4OC2(C(C)=CC1C)C3C(O)C(C)C4OC(=O)c1ccc[nH]1 (stereo not shown) [Compound 32, 18-Deoxynargenicin A1]",zone of inhibition at 1000 µg/mL,[8],29 mm
same,zone of inhibition at 1000 µg/mL,[9]; [11],32 mm
same,ED50,[10],> 100 mg/kg
"COC1CC2C=CC3C4OC2(C(C)=CC(C)C(C(C)Cl)OC1=O)C3C(O)C(C)C4O (stereo not shown) [Compound 35, 18-Chloro-18-deoxynodusmicin]",zone of inhibition at 1000 µg/mL,"[9]; 1 mg/ml, 0.5 in. disc, read-out: Agar Diffusion zone, S. lutea",30 mm
same,zone of inhibition at 1000 µg/mL,"[9]; 0.5 inch disc dipped into methanol solution, 1 mg/ml, read-out: zone of inhibition, S. lutea",30 mm
"COC1CC2C=CC3C4OC2(C(C)=CC(C)C(C(C)O)OC1=O)C3C(O)C(C)C4OC(=O)c1ccc[nH]1 (stereo not shown) [Compound 45, 18-Epinargenicin A1]",zone of inhibition at 1000 µg/mL,"[6]; read-out: zones of inhibition, Sarcina lutea",35 mm
same,zone of inhibition at 1000 µg/mL,"[7]; read-out: zones of inhibition, Staphylococcus aureus",26 mm
"COC1CC2C=CC3C4OC2(C(C)=CC(C)C(C(C)=NNC(N)=O)OC1=O)C3C(O)C(C)C4OC(=O)c1ccc[nH]1 (stereo not shown) [Compound 48, 18-Deoxy-18-semicarbazononargenicin A1]",zone of inhibition at 1000 µg/mL,"[6]; read-out: Zone size, S. lutea",35 mm
same,zone of inhibition at 1000 µg/mL,"[7]; read-out: Zone size, S. aureus",28 mm
"COC1CC2C=CC3C4OC2(C(C)=CC(C)C(C(C)O)OC1=O)C3C(O)C(C)C4OC(=O)c1ccc[nH]1 (stereo not shown) [Nargenicin A1, nargenicin A1, reference compound]",ED50,[10],17 to 20 mg/kg
